Each structure is given as a SMILES string.

Chain of DCN1 protein (Q96GG9 whole entry): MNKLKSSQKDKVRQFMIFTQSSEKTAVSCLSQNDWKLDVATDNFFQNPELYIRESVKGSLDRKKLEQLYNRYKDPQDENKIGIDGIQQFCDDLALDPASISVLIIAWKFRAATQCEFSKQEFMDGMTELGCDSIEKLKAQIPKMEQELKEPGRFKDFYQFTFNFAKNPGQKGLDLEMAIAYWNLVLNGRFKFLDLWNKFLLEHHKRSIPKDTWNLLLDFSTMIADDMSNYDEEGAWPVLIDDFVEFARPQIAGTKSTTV

In this assay the target is DCN1 protein (Homo sapiens (Human), UniProt Q96GG9). Description: Intact protein MS analysis with the RapidFire-TOF system (covalent adduct formation). Type of assay: binding. To be noted: 400 nM DCN1, incubated at room temperature for 3 hours. The method, then:
(§1) DCN1 protein, His-TEV-DCN1, were expressed in E. Coli. The His-tagged protein was first purified with an Ni-NTA column. The His-tag was cleaved using His-tag TEV protease and the His-tags were removed using a second Ni-NTA column. Protein purity was verified with SDS-PAGE and intact MS. DCN1 was dissolved in a buffer containing 25 mM Tris-HCl, 200 mM NaCl, and 1 mM DTT at 400 nM. 11 concentrations of compounds were added to the DCN1 solution and incubated at room temperature for 3 hours, unless otherwise specified. The reaction plates were quenched by adding 0.2% formic acid. Quenched assay plates were analyzed with an Agilent RapidFire 360 system connected to an Agilent 6545 Q-TOF mass spectrometer equipped with an AJS source. 10 μL of sample volume was loaded onto a custom packed cartridge (4 μL, PLRP-S 30 μm/1000 Å pore; Optimize Technologies) with loading buffer (ddH2O with 0.09% (vol/vol) formic acid and 0.01% (vol/vol) trifluoroacetic acid; 1.25 ml/min) for 6 seconds before being eluted directly into the mass spectrometer in elution buffer (80% acetonitrile with 0.09% (vol/vol) formic acid and 0.01% (vol/vol) trifluoroacetic acid; 0.5 ml/min) for 7 seconds. The cartridge was re-equilibrated with loading buffer for 1 second before collection of the next sample. The Q-TOF was operated in TOF-only positive ionization mode set to the following parameters: Gas Temp=350 C, Drying Gas=7 l/min, Nebulizer=50 psi, Sheath Gas Temp=400 C, Sheath Gas Flow=12 l/min, VCap=4000 V, Nozzle Voltage=1000 V, Fragmentor=125 V, Skimmer=65 V and Oct 1 RF Vpp=750V. Raw MS data files were deconvoluted and analyzed using the Agilent MassHunter Bioconfirm software package to identify both parent protein and expected compound adduct mass signatures.
An MS assay was performed to evaluate the ability of the compounds to covalently modify DCN-1.
as §1, with “Vcap=4000” for “VCap=4000”
As to `CCN1C(=O)[C@H](NC(=O)c2cccc(C(F)(F)F)c2)[C@@H](c2ccccc2NC(=O)[C@H](C)Cl)c2c(C)nn(-c3ccccc3)c21` (mixture of isomers) [Compound I-181], the “% Adduct Formation (MS Emax)” value is “++ (MS Emax % adduct formation greater than 30.0 and less than or equal to 80.0)”. As to `C=C(C)C(=O)Nc1cccc([C@H]2c3c(C)nn(-c4ccccc4)c3N(CC)C(=O)[C@@H]2NC(=O)c2cccc(C(F)(F)F)c2)c1` (racemic) [Compound I-201], the Emax (commonly the maximal effect, on the per cent scale that the assay sets) is 0 to 30%.

Turning to `CCN1C(=O)[C@H](NC(=O)c2cccc(C(F)(F)F)c2)[C@@H](c2ccccc2NC(=O)/C=C/CN(C)C)c2cnn(-c3ccccc3)c21` (racemic) [Compound I-196], the Emax lay within 0 to 30%. The same measure, in the same setting: in the case of `C=CC(=O)Nc1ccccc1[C@H]1c2cnn(-c3ccccc3)c2N(CC)C(=O)[C@@H]1NC(=O)c1cccc(C(F)(F)F)c1` (racemic) [Compound I-190] it was 30 to 80%.

`C=C(CN(C)C)C(=O)Nc1ccccc1[C@H]1c2cnn(-c3ccccc3)c2N(CC)C(=O)[C@@H]1NC(=O)c1cccc(C(F)(F)F)c1` (racemic) [Compound I-177] showed an Emax of 30 to 80%.

Regarding `C=C(F)C(=O)Nc1ccccc1[C@H]1c2cnn(-c3ccccc3)c2N(CC)C(=O)[C@@H]1NC(=O)c1cccc(C(F)(F)F)c1` (racemic) [Compound I-199], the Emax was 0 to 30%. Turning to `CCN1C(=O)[C@H](NC(=O)c2cccc(C(F)(F)F)c2)[C@@H](c2ccccc2NC(=O)[C@@H](C)Cl)c2cnn(-c3ccccc3)c21` (mixture of isomers) [Compound I-185], the maximal response (Emax) was 0 to 30%. Consider `CCN1C(=O)[C@H](NC(=O)c2cccc(C(F)(F)F)c2)[C@@H](c2ccccc2NC(=O)C(Cl)Cl)c2cnn(-c3ccccc3)c21` (racemic) [Compound I-198], for which the Emax lay in the range of 0 to 30%.

On to `CCN1C(=O)[C@H](NC(=O)c2cccc(C(F)(F)F)c2)[C@@H](c2cccc(NC(=O)COc3c(F)c(F)cc(F)c3F)c2)c2c(C)nn(-c3ccccc3)c21` (racemic) [Compound I-171], for which the Emax fell in the range of 0 to 30%.

`CCN1C(=O)[C@H](NC(=O)c2cccc(C(F)(F)F)c2)[C@@H](c2ccccc2NC(=O)COc2c(F)c(F)cc(F)c2F)c2cnn(-c3ccccc3)c21` (racemic) [Compound I-200] had an Emax of 0 to 30%. On the same count and under the same terms, in the case of `CCN1C(=O)[C@H](NC(=O)c2cccc(C(F)(F)F)c2)[C@@H](c2ccccc2NC(=O)/C=C/C(=O)OC)c2cnn(-c3ccccc3)c21` (racemic) [Compound I-167] it was 80 to 100%; in that of `CCN1C(=O)[C@H](NC(=O)c2cccc(C(F)(F)F)c2)[C@@H](c2ccccc2NC(=O)/C=C/C(F)(F)F)c2cnn(-c3ccccc3)c21` (racemic) [Compound I-168], 0 to 30%; in that of `CCN1C(=O)[C@H](NC(=O)c2cccc(C(F)(F)F)c2)[C@@H](c2ccc(F)cc2NC(=O)CC#N)c2cnn(-c3ccccc3)c21` (racemic) [Compound I-187], 0 to 30%. On the same count and under the same terms, in the case of `C#CC(=O)Nc1ccccc1[C@H]1c2cnn(-c3ccccc3)c2N(CC)C(=O)[C@@H]1NC(=O)c1cccc(C(F)(F)F)c1` (racemic) [Compound I-194] it was 80 to 100%; in that of `CCN1C(=O)[C@H](NC(=O)c2cccc(C(F)(F)F)c2)[C@@H](c2ccccc2NC(=O)C2=CCC2)c2cnn(-c3ccccc3)c21` (racemic) [Compound I-195], 0 to 30%. For the molecule `CCN1C(=O)[C@H](NC(=O)c2cccc(C(F)(F)F)c2)[C@@H](c2ccccc2NC(=O)CCl)c2cnn(-c3ccccc3)c21` [Compound I-178, N-((4S,5R)-4-(2-(2-chloroacetamido)phenyl)-7-ethyl-6-oxo-1-phenyl-4,5,6,7-tetrahydro-1H-pyrazolo[3,4-b]pyridin-5-yl)-3-(trifluoromethyl)benzamide], the “% Adduct Formation (MS Emax)” value was “+ (MS Emax % adduct formation greater than or equal to 0.0 and less than or equal to 30.0)”. `C=CS(=O)(=O)Nc1cccc([C@H]2c3c(C)nn(-c4ccccc4)c3N(CC)C(=O)[C@H]2NC(=O)c2cccc(C(F)(F)F)c2)c1` (racemic) [Compound I-186] gave an Emax of 30 to 80%.

Molecule `C=CS(=O)(=O)Nc1ccccc1[C@H]1c2cnn(-c3ccccc3)c2N(CC)C(=O)[C@@H]1NC(=O)c1cccc(C(F)(F)F)c1` (racemic) [Compound I-166] gave an Emax of 80 to 100%. On the same count and under the same terms, in the case of `C=C(C)C(=O)Nc1ccccc1[C@H]1c2c(C)nn(-c3ccccc3)c2N(CC)C(=O)[C@@H]1NC(=O)c1cccc(C(F)(F)F)c1` (racemic) [Compound I-165] it was 0 to 30%.

Regarding `CCN1C(=O)[C@H](NC(=O)c2cccc(C(F)(F)F)c2)[C@@H](c2ccccc2NC(=O)[C@H](C)Cl)c2c(C)nn(-c3ccccc3)c21` (mixture of isomers) [Compound I-182], the “% Adduct Formation (MS Emax)” value was “+ (MS Emax % adduct formation greater than or equal to 0.0 and less than or equal to 30.0)”. The same measure, in the same setting: in the case of `CCN1C(=O)[C@H](NC(=O)c2cccc(C(F)(F)F)c2)[C@@H](c2ccccc2NC(=O)CCl)c2cnn(-c3ccccc3)c21` (racemic) [Compound I-170] it was “+++ (MS Emax % adduct formation greater than 80.0 and less than or equal to 100.0)”.

`CCN1C(=O)[C@H](NC(=O)c2cccc(C(F)(F)F)c2)[C@@H](c2ccccc2NC(=O)C2=CCCC2)c2cnn(-c3ccccc3)c21` (racemic) [Compound I-188] displayed an Emax of 0 to 30%. The same measure, in the same setting: in the case of `C=CS(=O)(=O)Nc1cccc([C@H]2c3c(C)nn(-c4ccccc4)c3N(CC)C(=O)[C@@H]2NC(=O)c2cccc(C(F)(F)F)c2)c1` (racemic) [Compound I-5] it was 80 to 100%. The molecule `CCN1C(=O)[C@@H](NC(=O)c2cccc(C(F)(F)F)c2)[C@@H](c2cccc(NC(=O)C3=CCC3)c2)c2c(C)nn(-c3ccccc3)c21` [Compound I-202] displayed a maximal effect (Emax) of 0 to 30%. The molecule `CCN1C(=O)[C@H](NC(=O)c2cccc(C(F)(F)F)c2)[C@@H](c2cccc(NC(=O)[C@H](C)Br)c2)c2c(C)nn(-c3ccccc3)c21` (mixture of isomers) [Compound I-180] had an Emax of 80 to 100%. Same read-out and setting: in the case of `CCN1C(=O)[C@@H](NC(=O)c2cccc(C(F)(F)F)c2)[C@@H](c2cccc(NC(=O)CCl)c2)c2c(C)nn(-c3ccccc3)c21` (racemic) [Compound I-203] it was 0 to 30%; in that of `CCN1C(=O)[C@@H](NC(=O)c2cccc(C(F)(F)F)c2)[C@@H](c2cccc(NC(=O)/C=C/CN(C)C)c2)c2c(C)nn(-c3ccccc3)c21` (racemic) [Compound I-192], 0 to 30%. As for `CCN1C(=O)[C@H](NC(=O)c2cccc(C(F)(F)F)c2)[C@@H](c2ccccc2NC(=O)CCl)c2c(C)nn(-c3ccccc3)c21` (racemic) [Compound I-208], the Emax lay within 80 to 100%. The same measure, in the same setting: in the case of `C=C(C)C(=O)Nc1ccccc1[C@H]1c2cnn(-c3ccccc3)c2N(CC)C(=O)[C@@H]1NC(=O)c1cccc(C(F)(F)F)c1` (racemic) [Compound I-183] it was 0 to 30%. With `C=C(CN1CCOCC1)C(=O)Nc1cccc([C@H]2c3c(C)nn(-c4ccccc4)c3N(CC)C(=O)[C@H]2NC(=O)c2cccc(C(F)(F)F)c2)c1` (racemic) [Compound I-172], the “% Adduct Formation (MS Emax)” value was “+ (MS Emax % adduct formation greater than or equal to 0.0 and less than or equal to 30.0)”. `C/C=C/C(=O)Nc1ccccc1[C@H]1c2cnn(-c3ccccc3)c2N(CC)C(=O)[C@@H]1NC(=O)c1cccc(C(F)(F)F)c1` (racemic) [Compound I-189] showed an Emax of 0 to 30%.

On to `CCN1C(=O)[C@H](NC(=O)c2cccc(C(F)(F)F)c2)[C@@H](c2ccccc2NS(=O)(=O)CCl)c2cnn(-c3ccccc3)c21` (racemic) [Compound I-175], for which the Emax fell in the range of 0 to 30%. Still for that read-out and setting: in the case of `CCN1C(=O)[C@H](NC(=O)c2cccc(C(F)(F)F)c2)[C@@H](c2ccccc2NC(=O)/C(C#N)=C/C2CC2)c2cnn(-c3ccccc3)c21` (racemic) [Compound I-179] it was 80 to 100%.

For the origin of these results see patent publication US12435087B2, “Modulators of DCN-1 and methods of use thereof” (Cellarity, Inc., priority 2023, dated 2025).
